Source: patent publication US4732972A, “Polypeptides having growth hormone releasing activity” (Hoffmann-La Roche Inc., priority 1985, dated 1988)
Ends that are not written are not given here.

What was measured:
rat pituitary cells = test: Growth hormone release in rat pituitary cells in tissue culture (RIA for rat growth hormone); format: cell-based; settings: for Growth Hormone Released, Percentage of Control / Growth Hormone Released: 3 hours incubation; for Growth Hormone Released: control 82
Method: The biological activity of (Leu^27)-GRF(1-44)-OH was compared with that of natural GRF(1-44)-NH2 which was isolated from a human pancreatic tumor of an individual suffering from acromegaly (Salk Institute standard hp-GRF-NH2 (NL-A-10)). The assay for biological activity, which is based on the ability to stimulate production of growth hormone in rat pituitary cells in tissue culture, was performed in the following manner.
Pituitaries from 30-40 male Sprague-Dawley rats (175 g) were removed aseptically after decapitation. The anterior lobes were collected, washed 3 times in sterile Hepes buffer (0.025M) (pH 7.35) and dispersed at 37° C. in 20-30-ml Hepes buffer (pH 7.35) containing collagenase (4 mg per ml) and Dispase (Protease grade II, 2 mg per ml). After gentle 100-110-min vortexing and trituration by Pasteur pipette, the dispersed cells were separated by centrifugation (150×g, 4 min) and re-suspended in Hepes buffer containing neuraminidase (8 μg/ml), and 200 μg/ml ethylenedinitrilotetraacetic acid (EDTA) disodium salt pH 7.35, for 10 min. The cells were washed twice with plating medium and plated on multiwell-plates (1.5×10^5 cells per ml) using the following defined medium: F-12/DMEM/(6:3:1) (Gibco: 430-1700/430-1600/320-2591) with 2 g BSA/l., 2.38 g Hepes/l, 50 mg Garamycin/l (Schering Co.). The medium in each well was supplemented either with (Leu^27)-GRF(1-44)-OH or natural GRF(1-44)-NH2 at concentrations ranging from 3.1 to 200 fmol. per ml. of medium. Control wells contained no supplement. Plating was done with this medium added with 2% fetal calf serum to ensure rapid fixation of the cells. On the fourth day the cells were washed twice with the defined medium without fetal calf serum. Finally 900 μl of defined medium was added to each well plus 100 μl of the same medium containing each individual treatment, in triplicate. After 3 hours of incubation the medium was collected and diluted as required to conduct radioimmunoassays (RIAs) for rat growth hormone. RIAs were conducted using Sinha's anti-murine GH immune serum.

growth hormone release = settings: compared with amidated 44 amino acid GRF; cited from earlier work

CC[C@H](C)[C@H](NC(=O)[C@H](C)NC(=O)[C@H](CC(=O)O)NC(=O)[C@H](C)NC(=O)[C@@H](N)Cc1ccc(O)cc1)C(=O)N[C@@H](Cc1ccccc1)C(=O)N[C@H](C(=O)N[C@@H](CC(N)=O)C(=O)N[C@@H](CO)C(=O)N[C@@H](Cc1ccc(O)cc1)C(=O)N[C@@H](CCCNC(=N)N)C(=O)N[C@@H](CCCCN)C(=O)N[C@H](C(=O)N[C@@H](CC(C)C)C(=O)NCC(=O)N[C@@H](CCC(N)=O)C(=O)N[C@@H](CC(C)C)C(=O)N[C@@H](CO)C(=O)N[C@@H](C)C(=O)N[C@@H](CCCNC(=N)N)C(=O)N[C@@H](CCCCN)C(=O)N[C@@H](CC(C)C)C(=O)N[C@@H](CC(C)C)C(=O)N[C@@H](CCC(N)=O)C(=O)N[C@@H](CC(=O)O)C(=O)N[C@H](C(=O)N[C@@H](CC(C)C)C(=O)N[C@@H](CO)C(=O)N[C@@H](CCCNC(=N)N)C(=O)N[C@@H](CCC(N)=O)C(=O)N[C@@H](CCC(N)=O)C(=O)NCC(=O)N[C@@H](CCC(=O)O)C(=O)N[C@@H](CO)C(=O)N[C@@H](CC(N)=O)C(=O)N[C@@H](CCC(N)=O)C(=O)N[C@@H](CCC(=O)O)C(=O)N[C@@H](CCCNC(=N)N)C(=O)NCC(=O)N[C@@H](C)C(=O)N[C@@H](CCCNC(=N)N)C(=O)N[C@@H](C)C(=O)N[C@@H](CCCNC(=N)N)C(=O)N[C@@H](CC(C)C)C(=O)O)[C@@H](C)CC)C(C)C)[C@@H](C)O [(Leu^27)-GRF(1-44)-OH]
Relative potency compared to the Salk Institute standard (rat pituitary cells; computerized analysis of the data of Tables 1 and 2, standard = GRF(1-44)-NH2): 1.063
Growth hormone releasing activity compared with GRF(1-44)-NH2 (in words) (rat pituitary cells; data of Tables 1 and 2): about the same level as GRF(1-44)-NH2 or slightly higher
Growth Hormone Released, Percentage of Control (rat pituitary cells; dose 3.1 f mol./ml.): 162 Percentage of Control
Growth Hormone Released (rat pituitary cells; dose 3.1 f mol./ml.): 133 ng/mL
Growth Hormone Released, Percentage of Control (rat pituitary cells; dose 6.3 f mol./ml.): 204 Percentage of Control
Growth Hormone Released (rat pituitary cells; dose 6.3 f mol./ml.): 167 ng/mL
Growth Hormone Released, Percentage of Control (rat pituitary cells; dose 12.5 f mol./ml.): 272 Percentage of Control
Growth Hormone Released (rat pituitary cells; dose 12.5 f mol./ml.): 223 ng/mL
Growth Hormone Released, Percentage of Control (rat pituitary cells; dose 25.0 f mol./ml.): 329 Percentage of Control
Growth Hormone Released (rat pituitary cells; dose 25.0 f mol./ml.): 270 ng/mL
Growth Hormone Released, Percentage of Control (rat pituitary cells; dose 50.0 f mol./ml.): 417 Percentage of Control
Growth Hormone Released (rat pituitary cells; dose 50.0 f mol./ml.): 342 ng/mL
Growth Hormone Released, Percentage of Control (rat pituitary cells; dose 100.0 f mol./ml.): 516 Percentage of Control
Growth Hormone Released (rat pituitary cells; dose 100.0 f mol./ml.): 423 ng/mL
Growth Hormone Released, Percentage of Control (rat pituitary cells; dose 200.0 f mol./ml.): 649 Percentage of Control
Growth Hormone Released (rat pituitary cells; dose 200.0 f mol./ml.): 532 ng/mL
Growth hormone released in vitro relative to the amount of peptide administered (rat pituitary cells; in vitro): on the order of ten times or more the amount of (Leu^27)-GRF-OH administered

free acid form of the 44 amino acid GRF: 44 amino acid GRF with the amide group removed, free acid form (YADAIFTNSYRKVLGQLSARKLLQDIMSRQQGESNQERGARARL-OH; UniProt P01286 32-75, looked up)
Biological activity after removal of the amide group (in words) (growth hormone release): significant loss of biological activity
